Among the data in paper PMC4416922, “Measurement of Inositol 1,4,5-Trisphosphate in Living Cells Using an Improved Set of Resonance Energy Transfer-Based Biosensors” (PLoS ONE, 2015) are Kd values, retold here.

For orientation: pKd means the Kd on a negative log10 scale, so that one unit is a factor of ten.

Assay in all cases: [3H]InsP3 radioligand displacement on purified recombinant protein, Scatchard analysis
In general terms: In a radioligand displacement assay an active substance lowers the binding of a labelled ligand.

In assay [1] the target is T1, human type-I InsP 3 receptor ligand binding domain (InsP3R-LBD) (Homo sapiens, UniProt Q14643, R568K).
T1 construct: gene ITPR1; residues 224-605, mRFP- and 6xHis-tagged

Assay [2] concerns the target T2, human type-I InsP 3 receptor ligand binding domain (InsP3R-LBD) (Homo sapiens, UniProt Q14643, R265K).
T2 construct: gene ITPR1; residues 224-605, mRFP- and 6xHis-tagged

Assay [3] concerns the target T3, human type-I InsP 3 receptor ligand binding domain (InsP3R-LBD) (Homo sapiens, UniProt Q14643, R269K).
T3 construct: gene ITPR1; residues 224-605, mRFP- and 6xHis-tagged

In assay [4] the target is T4, human type-I InsP 3 receptor ligand binding domain (InsP3R-LBD) (Homo sapiens, UniProt Q14643).
T4 construct: gene ITPR1; residues 224-605, mRFP- and 6xHis-tagged

pKd: −log10 of the molar value.

T2 sequence (Q14643 224-605 R265K): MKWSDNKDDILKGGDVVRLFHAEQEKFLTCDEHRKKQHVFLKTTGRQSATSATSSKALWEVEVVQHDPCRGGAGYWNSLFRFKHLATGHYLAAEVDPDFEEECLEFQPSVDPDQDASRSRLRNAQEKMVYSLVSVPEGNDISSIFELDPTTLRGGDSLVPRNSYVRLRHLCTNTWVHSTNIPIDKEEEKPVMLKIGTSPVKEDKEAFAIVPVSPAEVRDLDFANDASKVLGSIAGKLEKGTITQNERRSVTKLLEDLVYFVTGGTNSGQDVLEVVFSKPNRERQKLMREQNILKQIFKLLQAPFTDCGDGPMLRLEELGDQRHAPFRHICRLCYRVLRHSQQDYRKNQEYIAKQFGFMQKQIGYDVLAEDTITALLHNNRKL
T1 sequence (Q14643 224-605 R568K): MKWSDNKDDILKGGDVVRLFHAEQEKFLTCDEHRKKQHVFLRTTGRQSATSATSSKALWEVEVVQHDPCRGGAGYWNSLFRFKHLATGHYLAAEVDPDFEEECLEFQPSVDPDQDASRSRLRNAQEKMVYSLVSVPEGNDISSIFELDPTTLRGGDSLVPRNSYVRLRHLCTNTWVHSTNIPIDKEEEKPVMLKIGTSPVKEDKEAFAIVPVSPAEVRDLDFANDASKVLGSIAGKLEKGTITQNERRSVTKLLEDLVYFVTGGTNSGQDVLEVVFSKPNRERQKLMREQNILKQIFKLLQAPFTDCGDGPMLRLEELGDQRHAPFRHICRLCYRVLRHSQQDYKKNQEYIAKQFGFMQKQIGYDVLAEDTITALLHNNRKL
T3 sequence (Q14643 224-605 R269K): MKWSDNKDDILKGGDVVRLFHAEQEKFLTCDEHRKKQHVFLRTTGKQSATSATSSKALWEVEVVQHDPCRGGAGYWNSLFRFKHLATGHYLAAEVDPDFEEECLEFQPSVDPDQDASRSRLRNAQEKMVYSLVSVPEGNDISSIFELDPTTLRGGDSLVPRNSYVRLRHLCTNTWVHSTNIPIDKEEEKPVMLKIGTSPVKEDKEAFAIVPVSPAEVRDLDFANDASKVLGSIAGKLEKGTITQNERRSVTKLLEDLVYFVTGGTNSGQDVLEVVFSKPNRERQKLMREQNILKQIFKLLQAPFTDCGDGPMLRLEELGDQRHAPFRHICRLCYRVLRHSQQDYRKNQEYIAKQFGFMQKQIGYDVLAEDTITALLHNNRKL
T4 sequence (Q14643 224-605): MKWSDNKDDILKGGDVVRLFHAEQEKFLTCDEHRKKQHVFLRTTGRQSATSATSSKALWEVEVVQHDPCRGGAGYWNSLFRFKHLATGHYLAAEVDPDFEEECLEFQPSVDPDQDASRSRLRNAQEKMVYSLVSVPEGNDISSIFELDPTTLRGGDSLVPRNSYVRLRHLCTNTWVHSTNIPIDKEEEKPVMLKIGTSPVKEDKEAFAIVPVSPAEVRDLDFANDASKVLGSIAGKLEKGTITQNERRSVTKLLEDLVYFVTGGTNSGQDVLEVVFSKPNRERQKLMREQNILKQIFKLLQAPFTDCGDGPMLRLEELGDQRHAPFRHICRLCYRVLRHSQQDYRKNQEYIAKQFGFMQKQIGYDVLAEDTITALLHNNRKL

As for `O=P(O)(O)O[C@@H]1[C@H](O)[C@H](O)[C@@H](OP(=O)(O)O)[C@H](OP(=O)(O)O)[C@H]1O` [InsP 3], the pKd in assay [1] is 8.28; in assay [2], 8.22; in assay [3], 8.00; in assay [4], 8.52.
